This is an account of results in US20210299079A1, “MONOMETHYL FUMARATE-CARRIER CONJUGATES AND METHODS OF THEIR USE” (Flagship Pioneering Innovations V, Inc., priority 2018, published 2021).

In series [1] the target is T1, AhR (Homo sapiens, UniProt P35869).
T1 sequence (P35869 11-848): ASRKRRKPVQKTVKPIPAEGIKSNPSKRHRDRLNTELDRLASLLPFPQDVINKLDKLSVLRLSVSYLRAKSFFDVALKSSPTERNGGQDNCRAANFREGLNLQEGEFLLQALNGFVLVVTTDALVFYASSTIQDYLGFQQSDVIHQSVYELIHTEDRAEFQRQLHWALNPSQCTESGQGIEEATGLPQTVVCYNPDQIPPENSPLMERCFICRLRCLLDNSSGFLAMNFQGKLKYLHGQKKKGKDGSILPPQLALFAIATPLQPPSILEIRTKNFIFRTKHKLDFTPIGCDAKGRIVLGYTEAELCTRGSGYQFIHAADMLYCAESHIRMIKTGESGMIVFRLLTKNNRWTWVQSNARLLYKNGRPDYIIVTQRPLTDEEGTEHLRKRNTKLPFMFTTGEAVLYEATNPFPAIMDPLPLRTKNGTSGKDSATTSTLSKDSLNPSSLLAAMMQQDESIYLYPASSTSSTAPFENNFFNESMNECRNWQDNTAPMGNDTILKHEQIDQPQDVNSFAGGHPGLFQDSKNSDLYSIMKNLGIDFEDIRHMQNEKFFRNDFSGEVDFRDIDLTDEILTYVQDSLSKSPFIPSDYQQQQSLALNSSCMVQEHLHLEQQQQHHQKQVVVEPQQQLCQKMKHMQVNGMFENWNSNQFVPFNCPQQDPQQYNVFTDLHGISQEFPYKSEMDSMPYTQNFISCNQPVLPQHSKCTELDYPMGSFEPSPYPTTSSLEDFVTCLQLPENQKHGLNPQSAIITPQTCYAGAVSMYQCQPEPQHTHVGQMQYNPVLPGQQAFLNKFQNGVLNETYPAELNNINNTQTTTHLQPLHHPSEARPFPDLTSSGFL
The experiment in a line: AhR Activation in Caco-2 Cells Through CYP1A1 mRNA Expression. To be noted: overnight. As to the method:
Caco-2 cells from American Type Culture Collection (ATCC) were plated in a sterile tissue culture treated 96-well plate (ThermoFisher) at 8.0×10^5 cells per well, and grown overnight at 37° C., 5% CO2 in DMEM complete (Gibco) in order to achieve confluence. After the incubation medium was aspirated off of the Caco-2 monolayers, tissues were then washed with 200 μL of warmed PBS solution, and subsequently 190 μL of pre-warmed growth medium was added to each well. Compounds of interest were diluted at a 20× concentration in growth medium containing 2% DMSO, and 10 μL of compound solutions were added to respective wells in triplicate. Compounds where incubated overnight at 37° C., 5% CO2. 2-(1′H-indole-3′-carbonyl)-thiazole-4-carboxylic acid methyl ester (ITE) was used as the positive control for AhR activation at 1 and 100 μM concentrations. At the end of the incubation, medium was aspirated off of the Caco-2 cells, and washed with 100 μL of cold PBS solution. RNA was extracted via the TaqMan™ Gene Expression Cells-to-CT™ Kit (ThermoFisher) according to the manufacturer's protocol. The QuantStudio 6 Flex (Applied Biosciences) was used to analyze mRNA levels of CYP1A1 using GAPDH as the endogenous control. TaqMan™ probe sets for both genes were acquired from ThermoFisher. Samples were run in triplicate and data was analyzed using the QuantStudio software and reported as linear (Table 6) and log 2(ΔΔCT) values. Statistical analysis was performed using a two-tailed t-test comparing CYP1A1 levels in the presence of each individual compound to the vehicle negative control.

The test system of series [2] is Caco-2 colonocytes. Briefly: Human Caco-2 Barrier Integrity Assay, Study 1. Type of series: cell-based. Particulars: Caco-2, + cytokines (TNFα, IFNγ, IL-1β), 48 hours. In short, it runs like this:
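Caco-2 cells grown in supplemented DMEM were seeded on collagen I-coated transwell membranes, with medium in both apical and basolateral compartments. TEER was read again after 48 hours, and viability assessed by MTS-type CellTiter 96 AQueous One assay.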

The subject of series [3] is MIP-1α. The experiment in a line: Neutrophil Chemokine Production Assay: MIP-1α. To be noted: human neutrophils, 12 h. The format is cell-based. In short, it runs like this:
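Neutrophils were isolated from human blood by Histopaque-1077 separation and RBC lysis, then plated at 2.0×10^5 cells/well in RPMI complete. Cells were stimulated with LPS (10 μL of a 2 μg/mL solution) for 12 h at 37 °C. Supernatant chemokines were measured by Luminex multiplex, averaging three data points from two donors.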

Regarding `CCC(=O)O` [propionate], the “Average CYP1A1 mRNA levels” value in series [1] (Conc. 1000.0 μM) and in series [1] (Conc. 3000.0 μM) was “− (− = <2-fold Vehicle)” each time. The “% Change in TEER from DMSO” value in series [2] (1 mM) is “+ (125% > <150%: +)”; in series [2] (3 mM), “++ (150% > <200%: ++)”. The “% MIP-1α (Vehicle + LPS = 100%)” value in series [3] (Conc. 500.0 μM), in series [3] (Conc. 1000.0 μM) and in series [3] (Conc. 3000.0 μM) was “+++ (+++ = <50% Vehicle)” in each case.
